Assay results from US20130337486A1, “MICROFLUIDIC DEVICE FOR HIGH-[…] GRADIENT AND DOSE RESPONSE STUDIES” (UCSD Tech Transfer Office, priority 2005, published 2013).

Experiments:
a-Type Yeast = assay: Phenotypic dose response of single yeast cells to a pheromone gradient in the microfluidic device; type: cell-based
Experimental: (§1) Using a device of the invention such as that shown in FIG. 1, analysis of phenotypic dose response in single cells was performed. Yeast cells were grown in YPD media to mid-log phase, and concentrated 10-fold before loading into syringes. The maximum pheromone concentrations used in the experiments was typically 75-100 nM, with varying minimum and maximum ranges for specific experiments. Pheromone diffusion was estimated by fluorescence imaging of the diffusion of Alexa Fluor dye 555 Hydrozide (Molecular Probes), with the MW of approximately 1150 Da (cf. 1684 Da MW of the a-factor), which was used at the concentration of 5 μM. […]
(§2) Images were acquired using the Nikon Eclipse TE2000-U inverted epi-fluorescence microscope, using 20× (evaluation of the gradient values), and 100× (oil immersion; evaluation of yEGFP fluorescence) objectives. Phase contrast images were taken with automatic exposure control, whereas most fluorescence measurements involved manually specified fixed exposure times. Typical gradient measurements using Alexa Fluor 555 dye were obtained using red filter (G-2 EIC, 540/25 excitation wavelength) at a fixed exposure time of 1 sec, whereas yEGFP-mediated fluorescence was obtained using the green filter (YEL-GFP HQ, 500/20 excitation wavelength) at fixed exposure times of 3 secs. […]

Fus1-yEGFP = Fus1-yEGFP expression in yeast cell clusters exposed to a pheromone gradient; type: cell-based
Experimental: as §1, §2

α-factor
phenotype after pre-incubation in high uniform pheromone concentration (a-Type Yeast; 75 nM uniform pheromone for 4 hrs): shmoo formation by all cells
pheromone concentration range in which percentages of budded (BD), cell cycle arrest (CCA) and SM cells were comparable (a-Type Yeast; pheromone gradients from 0 up to 100 nM in test chambers): 15 to 40 nM
pheromone concentration range with clear bimodal nuclear Fus1-yEGFP response (Fus1-yEGFP; six hours after exposure to 0-75 nM pheromone gradient): 15 to 45 nM
difference in Fus1-yEGFP expression between SM cells and cells of all other phenotypes in the bimodal region (Fus1-yEGFP; six hours, 0-75 nM pheromone gradient, bimodal region): approximately 1.7 fold
